The nature of the data set: Aerodynamic particle size distribution by Andersen Cascade Impactor (ACI). Format: physicochemical. To be noted: flow rate 28.3 L/min, Samples I-V. How it is done: An Andersen Cascade Impactor (ACI) was used to determine the particle size distribution of Samples I-V. The test was conducted at a flow rate of 28.3 L/min. Deposition of the active substance on each ACI plate was determined by high performance liquid chromatography. The particle size was expressed in terms of mass median aerodynamic diameter (MMAD) and Geometric Standard Deviation (GSD).

Turning to `CC(C)(C)NC[C@H](O)c1ccc(O)c(CO)c1.O=C(O)C(O)C(O)C(=O)O` [Levalbuterol Tartrate, 4-[(1R)-2-(tert-butylamino)-1-hydroxyethyl]-2-(hydroxymethyl)phenol; (2R,3R)-2,3-dihydroxybutanedioic acid], the GSD is 1.7 and the MMAD is given as 4.4 μm.
